Experimental data reported in publication PMC4979471 (Cell Death Discovery, 2015).
Read-outs that look alike come from different tables or passages of the source.

Columns and labels:
Experiment in all cases: Kinase selectivity, P33-radiolabeled assay
Assay type in all cases: biochemical
Settings in all cases: 10 μM ATP
CK1g3 = molecular target: T1, CK1g3 (Homo sapiens, UniProt Q9Y6M4)
T1 construct: purchased Reaction Biology Corp
Outline: (§1)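 ATP at 10 μM; test article at 10 μM, single point, two replicates. Output is activity as % of DMSO.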

MUSK = molecular target: T2, MUSK (Homo sapiens, UniProt O15146)
T2 construct: purchased Reaction Biology Corp
T2 sequence (O15146 24-869): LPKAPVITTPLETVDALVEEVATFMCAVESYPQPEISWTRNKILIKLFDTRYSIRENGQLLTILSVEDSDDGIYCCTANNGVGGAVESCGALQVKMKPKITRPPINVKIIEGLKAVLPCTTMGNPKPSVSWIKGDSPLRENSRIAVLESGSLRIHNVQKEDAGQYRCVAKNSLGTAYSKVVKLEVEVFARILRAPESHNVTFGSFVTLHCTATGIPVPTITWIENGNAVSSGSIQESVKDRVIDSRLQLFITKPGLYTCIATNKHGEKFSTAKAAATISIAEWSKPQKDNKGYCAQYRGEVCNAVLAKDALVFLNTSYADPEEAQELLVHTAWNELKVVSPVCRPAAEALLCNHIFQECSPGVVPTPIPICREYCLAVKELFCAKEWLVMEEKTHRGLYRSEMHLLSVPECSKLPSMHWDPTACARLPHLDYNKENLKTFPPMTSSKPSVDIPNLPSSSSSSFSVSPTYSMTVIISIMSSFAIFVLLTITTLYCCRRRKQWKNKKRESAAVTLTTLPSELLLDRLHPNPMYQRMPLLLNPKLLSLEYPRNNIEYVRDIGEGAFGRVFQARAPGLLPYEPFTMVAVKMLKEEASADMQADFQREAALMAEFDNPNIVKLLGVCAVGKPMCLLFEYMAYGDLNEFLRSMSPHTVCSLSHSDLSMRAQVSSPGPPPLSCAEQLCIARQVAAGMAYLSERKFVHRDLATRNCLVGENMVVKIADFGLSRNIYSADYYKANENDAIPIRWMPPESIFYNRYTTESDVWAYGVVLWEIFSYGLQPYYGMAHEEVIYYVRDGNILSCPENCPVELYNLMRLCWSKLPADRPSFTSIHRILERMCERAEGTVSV
Outline: as §1

CAMK4 = molecular target: T3, CAMK4 (Homo sapiens, UniProt Q16566)
T3 construct: purchased Reaction Biology Corp
T3 sequence (Q16566 1-473): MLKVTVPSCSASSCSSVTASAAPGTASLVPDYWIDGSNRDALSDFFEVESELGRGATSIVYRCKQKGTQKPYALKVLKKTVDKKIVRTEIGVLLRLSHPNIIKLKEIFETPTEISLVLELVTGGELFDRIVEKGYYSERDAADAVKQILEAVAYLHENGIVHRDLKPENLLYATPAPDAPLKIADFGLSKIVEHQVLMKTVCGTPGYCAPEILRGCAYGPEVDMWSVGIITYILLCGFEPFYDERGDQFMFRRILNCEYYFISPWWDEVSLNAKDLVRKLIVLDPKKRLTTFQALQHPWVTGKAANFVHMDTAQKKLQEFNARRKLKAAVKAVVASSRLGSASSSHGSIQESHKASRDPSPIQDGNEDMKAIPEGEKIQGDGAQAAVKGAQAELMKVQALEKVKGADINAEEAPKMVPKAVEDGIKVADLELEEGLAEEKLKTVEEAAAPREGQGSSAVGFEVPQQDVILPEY
Outline: as §1

ARAF = molecular target: T4, ARAF (Homo sapiens, UniProt P10398)
T4 construct: purchased Reaction Biology Corp
T4 sequence (P10398 1-606): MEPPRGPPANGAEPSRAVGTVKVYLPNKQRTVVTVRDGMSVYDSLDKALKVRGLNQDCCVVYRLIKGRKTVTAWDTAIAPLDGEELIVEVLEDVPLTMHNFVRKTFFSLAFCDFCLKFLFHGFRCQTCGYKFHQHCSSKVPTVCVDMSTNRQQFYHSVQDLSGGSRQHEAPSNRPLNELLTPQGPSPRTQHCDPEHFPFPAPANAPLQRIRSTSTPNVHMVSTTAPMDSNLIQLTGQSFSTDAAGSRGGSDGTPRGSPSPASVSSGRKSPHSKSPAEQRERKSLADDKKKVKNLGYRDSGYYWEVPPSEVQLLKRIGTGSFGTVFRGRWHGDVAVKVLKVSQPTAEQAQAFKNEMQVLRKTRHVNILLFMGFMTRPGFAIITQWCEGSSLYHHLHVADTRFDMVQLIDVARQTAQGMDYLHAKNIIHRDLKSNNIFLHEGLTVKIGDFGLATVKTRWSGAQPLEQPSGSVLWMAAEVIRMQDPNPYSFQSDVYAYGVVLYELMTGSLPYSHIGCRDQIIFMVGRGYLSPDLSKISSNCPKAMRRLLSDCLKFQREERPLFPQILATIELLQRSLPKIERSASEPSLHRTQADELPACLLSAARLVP
Outline: as §1

NEK4 = molecular target: T5, NEK4 (Homo sapiens, UniProt P51957)
T5 construct: purchased Reaction Biology Corp
Outline: as §1

SRPK1 = molecular target: T6, SRPK1 (Homo sapiens, UniProt Q96SB4)
T6 construct: purchased Reaction Biology Corp
Outline: as §1

[1] = read-out: % Enzyme Activity (relative to DMSO controls) AVG
[2] = read-out: % Enzyme Activity (relative to DMSO controls) Data 1
[3] = read-out: % Enzyme Activity (relative to DMSO controls) Data 2

T1 sequence (Q9Y6M4 whole entry): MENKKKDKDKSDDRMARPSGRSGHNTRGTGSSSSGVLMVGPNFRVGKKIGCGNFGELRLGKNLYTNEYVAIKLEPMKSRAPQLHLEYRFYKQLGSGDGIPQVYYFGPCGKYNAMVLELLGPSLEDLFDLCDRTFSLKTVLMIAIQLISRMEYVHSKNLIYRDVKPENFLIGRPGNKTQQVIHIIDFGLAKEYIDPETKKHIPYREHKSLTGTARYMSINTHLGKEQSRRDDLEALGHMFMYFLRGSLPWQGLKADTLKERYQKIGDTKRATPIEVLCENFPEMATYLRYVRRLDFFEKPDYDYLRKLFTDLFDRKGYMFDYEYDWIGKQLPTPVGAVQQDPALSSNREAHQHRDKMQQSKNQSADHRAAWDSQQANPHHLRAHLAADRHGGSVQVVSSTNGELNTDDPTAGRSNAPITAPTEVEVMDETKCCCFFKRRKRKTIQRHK
T6 sequence (Q96SB4 whole entry): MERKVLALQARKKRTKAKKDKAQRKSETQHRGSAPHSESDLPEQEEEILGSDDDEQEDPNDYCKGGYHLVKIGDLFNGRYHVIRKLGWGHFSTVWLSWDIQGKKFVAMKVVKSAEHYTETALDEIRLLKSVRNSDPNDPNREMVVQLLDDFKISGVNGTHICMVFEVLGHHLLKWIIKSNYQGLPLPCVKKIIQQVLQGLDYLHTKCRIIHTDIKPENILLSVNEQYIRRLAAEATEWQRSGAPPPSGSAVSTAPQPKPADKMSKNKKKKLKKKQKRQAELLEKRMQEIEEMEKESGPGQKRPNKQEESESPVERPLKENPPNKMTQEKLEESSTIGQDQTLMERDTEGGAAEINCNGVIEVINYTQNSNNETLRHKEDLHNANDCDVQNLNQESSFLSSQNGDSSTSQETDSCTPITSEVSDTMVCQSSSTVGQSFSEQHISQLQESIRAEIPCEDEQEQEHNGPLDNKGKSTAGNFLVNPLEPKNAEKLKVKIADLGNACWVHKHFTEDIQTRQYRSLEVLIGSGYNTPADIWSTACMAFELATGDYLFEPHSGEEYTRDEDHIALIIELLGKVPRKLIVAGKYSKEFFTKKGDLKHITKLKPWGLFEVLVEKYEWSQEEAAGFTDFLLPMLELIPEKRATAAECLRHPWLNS
T5 sequence (P51957 whole entry): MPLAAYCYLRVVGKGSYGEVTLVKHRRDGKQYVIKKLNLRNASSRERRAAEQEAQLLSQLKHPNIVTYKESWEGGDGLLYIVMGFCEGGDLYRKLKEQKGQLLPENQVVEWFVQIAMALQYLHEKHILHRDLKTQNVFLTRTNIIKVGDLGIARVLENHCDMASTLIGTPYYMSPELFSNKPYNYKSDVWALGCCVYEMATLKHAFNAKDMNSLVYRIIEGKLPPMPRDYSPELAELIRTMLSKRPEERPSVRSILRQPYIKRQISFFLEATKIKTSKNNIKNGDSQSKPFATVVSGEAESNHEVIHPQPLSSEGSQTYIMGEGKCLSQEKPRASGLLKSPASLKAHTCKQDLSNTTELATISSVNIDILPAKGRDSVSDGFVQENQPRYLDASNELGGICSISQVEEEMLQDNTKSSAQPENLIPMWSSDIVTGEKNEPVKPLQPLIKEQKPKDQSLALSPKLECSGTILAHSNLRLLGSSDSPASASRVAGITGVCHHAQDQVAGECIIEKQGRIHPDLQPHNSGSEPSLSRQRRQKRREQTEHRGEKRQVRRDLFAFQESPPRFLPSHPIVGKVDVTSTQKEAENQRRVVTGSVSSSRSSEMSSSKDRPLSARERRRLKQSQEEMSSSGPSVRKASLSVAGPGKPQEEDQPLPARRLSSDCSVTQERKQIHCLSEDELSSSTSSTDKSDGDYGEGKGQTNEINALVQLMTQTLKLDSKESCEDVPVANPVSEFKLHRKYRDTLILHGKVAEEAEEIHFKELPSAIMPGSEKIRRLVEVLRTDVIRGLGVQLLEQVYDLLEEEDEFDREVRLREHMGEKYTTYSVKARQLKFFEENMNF

CC(C)(C)C(=O)N1N=CC[C@H]1c1ccccc1 [GSK′963] was tested, and the remaining activity at 10 µM (CK1g3; [1]) was 98.4%, the remaining activity at 10 µM (CK1g3; [2]) was 97.8% and the remaining activity at 10 µM (CK1g3; [3]) was 99%. The remaining activity at 10 µM (MUSK; [1]) was 99.9%, the remaining activity at 10 µM (MUSK; [2]) was 99.2% and the remaining activity at 10 µM (MUSK; [3]) was 100%. The remaining activity at 10 µM (CAMK4; [1]) was 96.7%, the remaining activity at 10 µM (CAMK4; [2]) was 95.5% and the remaining activity at 10 µM (CAMK4; [3]) was 97.9%. The remaining activity at 10 µM (ARAF; [1]) was 93.7%, the remaining activity at 10 µM (ARAF; [2]) was 94.6% and the remaining activity at 10 µM (ARAF; [3]) was 92.9%. For the same compound, the remaining activity at 10 µM (NEK4; [1]) was 102%, the remaining activity at 10 µM (NEK4; [2]) was 102% and the remaining activity at 10 µM (NEK4; [3]) was 102%. It also gave a remaining activity at 10 µM (SRPK1; [1]) of 97.7%, a remaining activity at 10 µM (SRPK1; [2]) of 93.2% and a remaining activity at 10 µM (SRPK1; [3]) of 102%.
